Assays:
MCF-7 cells = experiment: PE Annexin V/7-AAD apoptosis flow cytometry; format: cell-based; conditions: MCF-7, 0.01, 0.1 and 1 μM, 24 h
Experimental: MCF-7 cells were treated with 0.1% DMSO (control) or with SY-707 solution at indicated concentrations for 24 h at 37°C, then the cells were harvested by centrifugation at 350 g and washed twice with PBS. Cell apoptosis was determined using the PE Annexin V Apoptosis Detection kit (BD Biosciences, San Jose, USA) following the manufacture’s guides. Breifly, cells were resuspended with 100 μL of binding buffer containing Annexin V and 7-AAD. After 15 min of incubation at room temperature in the dark, 400 μL of binding buffer was added to the mixture and the cells were analyzed with a Guava flow cytometer (Millipore). Cell cycle arrest was evaluated by incorporation of propidium (PI; Sigma-Aldrich, St Louis, USA) into the permeablized cells. After being treated with DMSO or compounds for 24 h, cells were harvested, washed twice with cold PBS, fixed with ice-cold 70% ethanol, followed by a secondary staining step with staining buffer (0.25 mg/mL RNase, 0.025 mg/mL PI, in PBS) for 1 h at 37°C. Compound regulation of cell-cycle was analyzed using the Guava flow cytometer. Data were analyzed with FlowJo software.

U87MG = experiment: Cell proliferation assay (CellTiter-Glo/CellTiter-Blue); format: cell-based; conditions: Homo sapiens, U-87 MG, 72 h, read-out: IC50 anti-proliferation
Experimental: (§1) MCF-7, T47D, MDA-MB-231, MIA Paca-2, PANC-1, SW620, HT-29, U87MG, and A549 cell lines were purchased from the Cell Bank of Chinese Academy of Science (Shanghai, China). Cells were cultured in DMEM or RPMI-1640 (Gibco, BRL, USA) supplemented with 10% FBS (HyClone, Logan, USA) and 50 IU penicillin/streptomycin in a humidified atmosphere with 5% CO 2 at 37°C. The effects of SY-707 on cell proliferation were measured using CellTiter-Glo ® or CellTiter-Blue ® Cell Viability Assay kits (Promega, Beijing, China). In brief, cells were seeded in 96-well plates at low destiny with 195 μL of medium per well. The stock solutions of compounds were 3-fold serially diluted with DMSO from 10 mM to 0.3 nM, and 4 μL of solution at each concentration was mixed with 96 μL of serum free medium, then 5 μL of the resulted solution was added to each well. After treatment for 72 h, 25 μL of CellTiter-Glo ® reagent (for adherent cells) or 35 μL CellTiter-Blue ® reagent (for suspension cells) was added to each well, and the resulted mixture was further incubated at room temperature for 10 min or 4 h. The luminescence signals were measured using EnVision ® multilabel plate reader (PerkinElmer), and the fluorescent signals were examined using FlexStation 3 (Molecular Devices, Sunnyvale, USA), and the IC 50 values were calculated using Prism ® software (Version 5.0) and presented as the average of three independent experiments performed in duplicate.

MIA PACA-2 = experiment: as above; format: cell-based; conditions: Homo sapiens, MIA PaCa-2, 72 h, read-out: IC50 anti-proliferation
Experimental: as §1

HT29 = experiment: as above; format: cell-based; conditions: Homo sapiens, HT-29, 72 h, read-out: IC50 anti-proliferation
Experimental: as §1

T47D = experiment: as above; format: cell-based; conditions: Homo sapiens, 72 h, read-out: IC50 anti-proliferation
Experimental: as §1

PANC-1 = experiment: as above; format: cell-based; conditions: Homo sapiens, PANC-1, 72 h, read-out: IC50 anti-proliferation
Experimental: as §1

A549 = experiment: as above; format: cell-based; conditions: Homo sapiens, A549, 72 h, read-out: IC50 anti-proliferation
Experimental: as §1

MCF-7 = experiment: as above; format: cell-based; conditions: Homo sapiens, MCF7, 72 h, read-out: IC50 anti-proliferation
Experimental: as §1

MDA-MB-231 = experiment: as above; format: cell-based; conditions: Homo sapiens, MDA-MB-231, 72 h, read-out: IC50 anti-proliferation
Experimental: as §1

SW620 = experiment: as above; format: cell-based; conditions: Homo sapiens, SW-620, 72 h, read-out: IC50 anti-proliferation
Experimental: as §1

ALK = ALK (Homo sapiens, UniProt Q9UM73); experiment: Enzymatic kinetic analysis at various ATP concentrations; format: biochemical
Experimental: (§2) SY-707 ( Figure 1A) was originally developed as an ALK inhibitor. […] To evaluate the in vitro enzymatic potency and selectivity of SY-707, a kinase panel screening on 96 kinases was performed to determine the inhibitory activities of SY-707 at a concentration of 1 mM. […] Then, enzymatic kinetic analysis of ALK and FAK was performed to explore the mechanisms of inhibition effect of SY-707. Activities of ALK or FAK were estimated at various concentrations of ATP in the presence or absence of SY-707.
(§3) (C) ALK enzyme activities were evaluated at various concentrations of ATP (0–50 μM) in the presence of different concentrations of SY-707. (D) FAK enzyme activities were evaluated at various concentrations of ATP (0–333 μM) in the presence of different concentrations of SY-707.

FAK = FAK (Homo sapiens, UniProt Q05397); experiment: as above; format: biochemical
Experimental: as §2, §3

T47D xenograft = experiment: T47D tumor xenograft study; format: in vivo, nude mice
Experimental: Due to the strong cell growth inhibition potency of SY-707, we firstly evaluate its in vivo anti-cancer activity in T47D xenograft model mice. In this model, mice were orally administered twice a day with vehicle or SY-707 at dose of 100, 50 or 25 mg/kg after tumor size reached 150–300 mm ^3.
Next, we evaluated the combination effects of SY-707 and paclitaxel (an approved drug for breast cancer therapy) in T47D xenograft model. Mice bearing T47D breast cancer were divided randomly into 4 groups: vehicle, SY-707 (100 mg/kg/day), paclitaxel (10 mg/kg/week), and SY-707 plus paclitaxel groups.

Chain of ALK (Q9UM73 19-1620): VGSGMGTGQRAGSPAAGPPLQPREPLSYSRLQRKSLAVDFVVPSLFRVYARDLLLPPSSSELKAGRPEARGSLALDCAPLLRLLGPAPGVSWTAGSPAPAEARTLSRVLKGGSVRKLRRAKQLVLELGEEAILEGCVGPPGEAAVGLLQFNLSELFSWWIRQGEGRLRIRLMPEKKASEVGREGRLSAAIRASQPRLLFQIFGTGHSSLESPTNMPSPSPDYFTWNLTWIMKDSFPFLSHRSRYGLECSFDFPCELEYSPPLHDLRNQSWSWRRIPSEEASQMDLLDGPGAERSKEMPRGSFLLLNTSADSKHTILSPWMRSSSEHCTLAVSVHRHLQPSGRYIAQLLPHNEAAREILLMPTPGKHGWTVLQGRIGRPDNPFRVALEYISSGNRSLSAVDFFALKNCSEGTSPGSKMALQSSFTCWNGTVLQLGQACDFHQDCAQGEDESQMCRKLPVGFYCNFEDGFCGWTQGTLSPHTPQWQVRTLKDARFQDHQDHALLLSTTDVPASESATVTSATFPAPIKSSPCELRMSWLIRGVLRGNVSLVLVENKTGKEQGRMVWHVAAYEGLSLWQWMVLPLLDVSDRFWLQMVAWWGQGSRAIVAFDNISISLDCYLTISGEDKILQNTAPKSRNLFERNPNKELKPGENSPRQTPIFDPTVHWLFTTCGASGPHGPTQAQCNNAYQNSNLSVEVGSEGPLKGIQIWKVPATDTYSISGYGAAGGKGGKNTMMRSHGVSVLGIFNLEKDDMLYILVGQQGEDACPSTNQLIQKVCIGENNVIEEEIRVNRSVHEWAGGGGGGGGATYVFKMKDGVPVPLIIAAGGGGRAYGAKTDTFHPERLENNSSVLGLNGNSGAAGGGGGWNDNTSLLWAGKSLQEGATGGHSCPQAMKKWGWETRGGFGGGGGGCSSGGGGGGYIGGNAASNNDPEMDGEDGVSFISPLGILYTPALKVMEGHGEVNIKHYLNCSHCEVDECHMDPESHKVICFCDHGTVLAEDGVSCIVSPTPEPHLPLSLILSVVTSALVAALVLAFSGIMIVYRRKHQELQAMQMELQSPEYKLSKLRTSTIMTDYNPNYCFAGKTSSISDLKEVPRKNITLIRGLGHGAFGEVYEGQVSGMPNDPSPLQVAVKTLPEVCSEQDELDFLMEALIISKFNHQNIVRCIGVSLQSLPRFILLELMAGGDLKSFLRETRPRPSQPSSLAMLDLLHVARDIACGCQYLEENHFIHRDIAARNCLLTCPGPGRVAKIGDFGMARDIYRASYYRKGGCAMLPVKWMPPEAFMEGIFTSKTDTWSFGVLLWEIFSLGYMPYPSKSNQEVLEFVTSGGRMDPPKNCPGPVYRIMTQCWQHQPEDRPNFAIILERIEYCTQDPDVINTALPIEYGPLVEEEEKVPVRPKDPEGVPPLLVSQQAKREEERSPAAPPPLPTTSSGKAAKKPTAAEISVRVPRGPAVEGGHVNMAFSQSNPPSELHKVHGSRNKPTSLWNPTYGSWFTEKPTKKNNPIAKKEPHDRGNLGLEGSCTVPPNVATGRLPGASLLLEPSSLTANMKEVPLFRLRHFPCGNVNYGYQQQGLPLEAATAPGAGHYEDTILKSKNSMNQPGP
Chain of FAK (Q05397 whole entry): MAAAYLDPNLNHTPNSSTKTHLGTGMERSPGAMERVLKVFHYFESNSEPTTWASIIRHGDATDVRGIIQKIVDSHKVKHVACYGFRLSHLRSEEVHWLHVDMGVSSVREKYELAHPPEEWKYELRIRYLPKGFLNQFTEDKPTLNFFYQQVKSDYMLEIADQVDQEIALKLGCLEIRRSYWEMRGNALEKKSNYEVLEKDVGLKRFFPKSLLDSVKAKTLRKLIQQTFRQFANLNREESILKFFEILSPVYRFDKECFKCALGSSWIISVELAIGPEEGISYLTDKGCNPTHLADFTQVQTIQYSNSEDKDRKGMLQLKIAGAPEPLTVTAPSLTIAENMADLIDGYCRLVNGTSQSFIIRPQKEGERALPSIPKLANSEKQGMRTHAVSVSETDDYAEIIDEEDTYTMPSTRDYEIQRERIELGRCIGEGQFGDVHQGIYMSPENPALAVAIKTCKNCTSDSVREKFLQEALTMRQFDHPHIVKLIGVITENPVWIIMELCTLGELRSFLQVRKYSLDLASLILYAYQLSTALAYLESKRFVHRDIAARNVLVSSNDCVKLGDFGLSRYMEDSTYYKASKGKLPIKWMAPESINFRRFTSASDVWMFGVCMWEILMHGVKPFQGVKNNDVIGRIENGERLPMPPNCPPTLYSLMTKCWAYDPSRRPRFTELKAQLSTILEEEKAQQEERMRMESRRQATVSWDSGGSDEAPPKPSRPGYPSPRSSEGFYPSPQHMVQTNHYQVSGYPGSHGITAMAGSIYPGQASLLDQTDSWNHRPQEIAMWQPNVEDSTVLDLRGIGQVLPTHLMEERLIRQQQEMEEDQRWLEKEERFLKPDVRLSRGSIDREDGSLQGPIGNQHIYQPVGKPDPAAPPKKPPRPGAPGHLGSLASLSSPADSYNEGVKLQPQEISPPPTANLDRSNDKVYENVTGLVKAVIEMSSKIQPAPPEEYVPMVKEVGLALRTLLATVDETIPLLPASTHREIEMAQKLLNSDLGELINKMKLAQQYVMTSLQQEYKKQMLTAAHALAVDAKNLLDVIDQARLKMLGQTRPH

## COc1cc(N2CCC(N3CCN(C)CC3)CC2)ccc1Nc1nc2c(c(Nc3ccccc3S(=O)(=O)NC(C)C)n1)CCN2 [SY-707, N-isopropyl-2-((2-((2-methoxy-4-(4-(4-methylpiperazin-1-yl)piperidin-1-yl)phenyl)amino)-6,7-dihydro-5H-pyrrolo[2,3-d]pyrimidin-4-yl)amino)benzenesulfonamide]
MCF-7 cells
  Late apoptosis: dose-dependently induced
U87MG
  IC50: > 10000 nM
MIA PACA-2
  IC50: 1300 nM
HT29
  IC50: 600 nM
T47D
  IC50: 1800 nM
PANC-1
  IC50: 1200 nM
A549
  IC50: 5700 nM
MCF-7
  IC50: 590 nM
MDA-MB-231
  IC50: 1900 nM
SW620
  IC50: 810 nM
ALK; Lineweaver-Burk plots
  mode of inhibition of ALK kinase: ATP-competitive inhibitor
ALK; enzyme-ATP complex
  Ki', ALK enzyme-ATP complex: 19.2 nM
ALK; free enzyme, read-out: dissociation constant (Ki), free ALK enzyme
  Ki: 0.9 nM
FAK; double-reciprocal plots
  mode of inhibition of FAK kinase: ATP-competitive inhibitory behavior
FAK; enzyme-ATP complex
  Ki', FAK enzyme-ATP complex: 16.1 nM
FAK; free enzyme, read-out: dissociation constant (Ki), free FAK enzyme
  Ki: 0.56 nM
T47D xenograft; 25 mg/kg orally twice a day, 21 days, P<0.05
  tumor growth inhibition rate: 31%
T47D xenograft; 50 mg/kg orally twice a day, 21 days, P<0.05
  tumor growth inhibition rate: 39%
T47D xenograft; 100 mg/kg orally twice a day, 21 days, P<0.01
  tumor growth inhibition rate: 61%
T47D xenograft; combination study, SY-707 100 mg/kg/day alone, 24 days
  tumor growth inhibition rate: 14%

Reference: PMC9909315, “SY-707, an ALK/FAK/IGF1R inhibitor, suppresses growth and metastasis of breast cancer cells” (Acta Biochimica et Biophysica Sinica, 2022)
